According to patent publication US12180192B2, “Modulators of THR-β and methods of use thereof” (ALIGOS THERAPEUTICS, INC., priority 2019, dated 2024):
Read-outs that look alike come from different tables or passages of the source.

Test system: CPT1A gene expression in Huh-7 cells
Assay: Huh-7 differential gene expression, CPT1A RT-qPCR (Assay 3)
Type: cell-based
Settings: Homo sapiens, Huh-7, 24 h; for EC50: read-out: Activity category Assay 3 EC50; for Emax: read-out: Activity category Assay 3 Emax
Experimental: Huh-7 Differential Gene Expression (Assay 3)
Fetal bovine serum (FBS) was incubated with washed resin (50 mg resin/mL FBS; resin weight is dry weight of resin prior to washing) for 5 hr at room temperature on a rotor. The FBS was separated from the resin via centrifugation and incubated with new, washed resin for 18 h at room temperature on a rotor.
Cell Culture and Drug Treatment
Huh-7 cells were cultured in DMEM (10-013-CM, Corning) supplemented with 10% FBS and 1% Pen-Strep at 37° C. under 5% C02. When 70-80% confluence was reached, the cells were removed by trypsinization. The medium was aspirated from the cell culture dish, the cell monolayer was washed with 1×PBS, and 0.05% trypsin, 0.53 mM EDTA (25-052-CV, Corning) solution was added to the dish. After 3 min incubation, the cells were detached completely by repeatedly pipetting solution onto the monolayer. Equal volume of DMEM supplemented with 10% rFBS and 1% Pen-Strep (TH-depleted DMEM) was added to the dish to inactivate the trypsin. The cell suspension was centrifuged at 350×g at room temperature for 3 min. The supernatant was aspirated out and the cell pellet was resuspended in TH-depleted DMEM. […] After 24 hr incubation, the media was replaced with treatment media. All compounds were serially diluted in DMSO and final concentrations were reached by dilution in TH-depleted DMEM (0.1% DMSO). The cells were incubated in treatment media for 24 hr. Treatments were performed in biological duplicates.
After 24 hr in treatment media, the cells were lysed directly on the culture plates and cDNA was produced using the TaqMan™ Fast Advanced Cells-to-CT™ Kit (A35374, Invitrogen) and following the manufacturer's protocol. RT-qPCR for CPT1A (Hs00912671_m1) and two housekeeping genes, ACTB (Hs01060665_g1) and TFG (Hs02832013_g1), was performed using TaqMan™ Fast Advanced Master Mix. RT-qPCR reactions were run on the qTOWER^3 84 G (Analytik Jena) in technical duplicates.
ΔRn values were obtained from the qPCRsoft384 1.0 software and CPT1A gene expression was quantified via the 2-ΔΔCt method. Dose-response curves were generated using GraphPad Prism 8 using four parameter logistic equation without top constraint to derive EC50 and Emax.

[1] = Table 6, Huh-7 cells, CPT1A, 24 hr treatment

N[C@@H](Cc1cc(I)c(Oc2ccc(O)c(I)c2)c(I)c1)C(=O)O [Compound T3, triiodothyronine, reference compound]
EC50: < 100 nM
Emax: > 75%

C#Cc1nn(-c2cc(Cl)c(Oc3cc(C(C)C)c(=O)[nH]n3)c(Cl)c2)c(=O)[nH]c1=O [Compound 11, 2-[3,5-dichloro-4-[(5-isopropyl-6-oxo-1H-pyridazin-3-yl)oxy]phenyl]-6-ethynyl-4H-1,2,4-triazine-3,5-dione]
EC50 [1]: < 100 nM
Emax [1]: > 75%

Nc1nn(-c2cc(Cl)c(Oc3cc(C4CCCC4)c(=O)[nH]n3)c(Cl)c2)c(=O)[nH]c1=O [Compound 42, 6-amino-2-(3,5-dichloro-4-((5-cyclopentyl-6-oxo-1,6-dihydropyridazin-3-yl)oxy)phenyl)-1,2,4-triazine-3,5(2H,4H)-dione]
EC50 [1]: < 100 nM
Emax [1]: 50 to 75%

CC(C)c1cc(Oc2c(Cl)cc(-n3nc(CC(=O)O)c(=O)[nH]c3=O)cc2Cl)n[nH]c1=O [Compound 13, 2-(2-(3,5-dichloro-4-((5-isopropyl-6-oxo-1,6-dihydropyridazin-3-yl)oxy)phenyl)-3,5-dioxo-2,3,4,5-tetra-hydro-1,2,4-triazin-6-yl)acetic acid]
EC50 [1]: > 100 nM
Emax [1]: > 75%
